# Biological target: T1, human histamine H3 receptor (Homo sapiens, UniProt Q9Y5N1)
# T1 construct: host or cells: cells expressing the human H3 receptor
# Assay: H3 GTPγS assay (SPA method), histamine H3 in vitro assay
# Type: biochemical
# Settings: GTPγ[35S] binding to membranes of cells expressing human H3; antagonist mode with R-γ-Me-Histamine at EC80 (30 nM); in one embodiment HCl salts tested; read-out: Potency (functional potency as indicated by IC50)
# T1 sequence (Q9Y5N1 whole entry): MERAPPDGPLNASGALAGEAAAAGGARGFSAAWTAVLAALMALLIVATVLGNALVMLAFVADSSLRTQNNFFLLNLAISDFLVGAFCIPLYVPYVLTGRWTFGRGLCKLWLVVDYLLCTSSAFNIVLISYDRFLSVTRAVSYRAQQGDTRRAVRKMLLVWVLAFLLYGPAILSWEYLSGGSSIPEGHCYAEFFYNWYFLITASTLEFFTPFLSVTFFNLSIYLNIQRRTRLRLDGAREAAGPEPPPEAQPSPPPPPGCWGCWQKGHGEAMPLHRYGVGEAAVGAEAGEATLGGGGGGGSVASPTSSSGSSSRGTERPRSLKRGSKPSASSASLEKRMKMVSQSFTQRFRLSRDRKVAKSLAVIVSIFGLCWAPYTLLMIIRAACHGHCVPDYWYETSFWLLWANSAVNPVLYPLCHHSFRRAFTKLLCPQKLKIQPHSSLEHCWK
row,IC50 [nM],SMILES
1,≤ 100,"Cc1nncn1-c1ccc2c(c1)nc1n2CCN(C2CCC2)CC1 [Compound 157, 3-cyclobutyl-8-(3-methyl-4H-1,2,4-triazol-4-yl)-2,3,4,5-tetrahydro-1H-benzo[4,5]imidazo[1,2-d][1,4]diazepine]"
2,≤ 10,"FC1CCN(Cc2ccc3c(c2)nc2n3CCN(C3CCC3)CC2)CC1 [Compound 159, 3-cyclobutyl-8-((4-fluoropiperidin-1-yl)methyl)-2,3,4,5-tetrahydro-1H-benzo[4,5]imidazo[1,2-d][1,4]diazepine]"
3,≤ 10,"FC1(F)CCN(Cc2ccc3c(c2)nc2n3CCN(C3CCC3)CC2)CC1 [Compound 160, 3-cyclobutyl-8-((4,4-difluoropiperidin-1-yl)methyl)-2,3,4,5-tetrahydro-1H-benzo[4,5]imidazo[1,2-d][1,4]diazepine]"
4,≤ 10,"FC1CCCN(Cc2ccc3c(c2)nc2n3CCN(C3CCC3)CC2)C1 (centres unmarked) [Compound 161, 3-cyclobutyl-8-((3-fluoropiperidin-1-yl)methyl)-2,3,4,5-tetrahydro-1H-benzo[4,5]imidazo[1,2-d][1,4]diazepine]"
5,≤ 10,"FC1(F)CCCN(Cc2ccc3c(c2)nc2n3CCN(C3CCC3)CC2)C1 [Compound 162, 3-cyclobutyl-8-((3,3-difluoropiperidin-1-yl)methyl)-2,3,4,5-tetrahydro-1H-benzo[4,5]imidazo[1,2-d][1,4]diazepine]"
6,≤ 10,"c1ccc2c(c1)CCN(Cc1ccc3c(c1)nc1n3CCN(C3CCC3)CC1)C2 [Compound 163, 3-cyclobutyl-8-((3,4-dihydroisoquinolin-2(1H)-yl)methyl)-2,3,4,5-tetrahydro-1H-benzo[4,5]imidazo[1,2-d][1,4]diazepine]"
7,≤ 10,"Fc1ccc2c(c1)CCN(Cc1ccc3c(c1)nc1n3CCN(C3CCC3)CC1)C2 [Compound 164, 3-cyclobutyl-8-((6-fluoro-3,4-dihydroisoquinolin-2(1H)-yl)methyl)-2,3,4,5-tetrahydro-1H-benzo[4,5]imidazo[1,2-d][1,4]diazepine]"
8,≤ 100,"FC1CCN(Cc2ccc3c(c2)nc2n3CCN(C3CCC3)CC2)C1 (centres unmarked) [Compound 165, 3-cyclobutyl-8-((3-fluoropyrrolidin-1-yl)methyl)-2,3,4,5-tetrahydro-1H-benzo[4,5]imidazo[1,2-d][1,4]diazepine]"
9,≤ 10,"FC1(F)CCN(Cc2ccc3c(c2)nc2n3CCN(C3CCC3)CC2)C1 [Compound 166, 3-cyclobutyl-8-((3,3-difluoropyrrolidin-1-yl)methyl)-2,3,4,5-tetrahydro-1H-benzo[4,5]imidazo[1,2-d][1,4]diazepine]"
10,≤ 10,"CC(=O)N1CCN(c2ccc3c(c2)nc2n3CCN(C3CCC3)CC2)CC1 [Compound 167, 1-(4-(3-cyclobutyl-2,3,4,5-tetrahydro-1H-benzo[4,5]imidazo[1,2-d][1,4]diazepin-8-yl)piperazin-1-yl)ethanone]"
11,≤ 10,"N#Cc1ccc(C(=O)N2CCN(c3ccc4c(c3)nc3n4CCN(C4CCC4)CC3)CC2)cc1 [Compound 168, 4-(4-(3-cyclobutyl-2,3,4,5-tetrahydro-1H-benzo[4,5]imidazo[1,2-d][1,4]diazepin-8-yl)piperazine-1-carbonyl)benzonitrile]"
12,≤ 100,"O=C(c1cnccn1)N1CCN(c2ccc3c(c2)nc2n3CCN(C3CCC3)CC2)CC1 [Compound 169, (4-(3-cyclobutyl-2,3,4,5-tetrahydro-1H-benzo[4,5]imidazo[1,2-d][1,4]diazepin-8-yl)piperazin-1-yl)(pyrazin-2-yl)methanone]"
13,≤ 10,"O=C(C1CC1)N1CCN(c2ccc3c(c2)nc2n3CCN(C3CCC3)CC2)CC1 [Compound 170, (4-(3-cyclobutyl-2,3,4,5-tetrahydro-1H-benzo[4,5]imidazo[1,2-d][1,4]diazepin-8-yl)piperazin-1-yl)(cyclopropyl)methanone]"
14,≤ 10,"CC(=O)N1CCCC(c2ccc3c(c2)nc2n3CCN(C3CCC3)CC2)C1 (centres unmarked) [Compound 171, 1-(3-(3-cyclobutyl-2,3,4,5-tetrahydro-1H-benzo[4,5]imidazo[1,2-d][1,4]diazepin-8-yl)piperidin-1-yl)ethanone]"
15,≤ 100,"N#Cc1ccc(C(=O)N2CCCC(c3ccc4c(c3)nc3n4CCN(C4CCC4)CC3)C2)cc1 (centres unmarked) [Compound 172, 4-(3-(3-cyclobutyl-2,3,4,5-tetrahydro-1H-benzo[4,5]imidazo[1,2-d][1,4]diazepin-8-yl)piperidine-1-carbonyl)benzonitrile]"
16,≤ 100,"O=C(c1cnccn1)N1CCCC(c2ccc3c(c2)nc2n3CCN(C3CCC3)CC2)C1 (centres unmarked) [Compound 173, (3-(3-cyclobutyl-2,3,4,5-tetrahydro-1H-benzo[4,5]imidazo[1,2-d][1,4]diazepin-8-yl)piperidin-1-yl)(pyrazin-2-yl)methanone]"
17,≤ 10,O=C(C1CCC1)N1CCCC(c2ccc3c(c2)nc2n3CCN(C3CCC3)CC2)C1 (centres unmarked) [Compound 174]
18,≤ 10,"c1cc2c(cc1N1CCCCC1)nc1n2CCN(C2CCC2)CC1 [Compound 175, 3-cyclobutyl-8-(piperidin-1-yl)-2,3,4,5-tetrahydro-1H-benzo[4,5]imidazo[1,2-d][1,4]diazepine]"
19,≤ 10,"c1ccc2c(c1)CCN(c1ccc3c(c1)nc1n3CCN(C3CCC3)CC1)C2 [Compound 176, 3-cyclobutyl-8-(3,4-dihydroisoquinolin-2(1H)-yl)-2,3,4,5-tetrahydro-1H-benzo[4,5]imidazo[1,2-d][1,4]diazepine]"
20,≤ 10,"Fc1ccc2c(c1)CN(c1ccc3c(c1)nc1n3CCN(C3CCC3)CC1)CC2 [Compound 177, 3-cyclobutyl-8-(7-fluoro-3,4-dihydroisoquinolin-2(1H)-yl)-2,3,4,5-tetrahydro-1H-benzo[4,5]imidazo[1,2-d][1,4]diazepine]"
21,≤ 100,"FC1(F)CCN(c2ccc3c(c2)nc2n3CCN(C3CCC3)CC2)CC1 [Compound 178, 3-cyclobutyl-8-(4,4-difluoropiperidin-1-yl)-2,3,4,5-tetrahydro-1H-benzo[4,5]imidazo[1,2-d][1,4]diazepine]"
22,≤ 10,"FC1CCN(c2ccc3c(c2)nc2n3CCN(C3CCC3)CC2)CC1 [Compound 179, 3-cyclobutyl-8-(4-fluoropiperidin-1-yl)-2,3,4,5-tetrahydro-1H-benzo[4,5]imidazo[1,2-d][1,4]diazepine]"
23,≤ 10,"FC1CCCN(c2ccc3c(c2)nc2n3CCN(C3CCC3)CC2)C1 (centres unmarked) [Compound 180, 3-cyclobutyl-8-(3-fluoropiperidin-1-yl)-2,3,4,5-tetrahydro-1H-benzo[4,5]imidazo[1,2-d][1,4]diazepine]"
24,≤ 100,"FC1CCN(c2ccc3c(c2)nc2n3CCN(C3CCC3)CC2)C1 (centres unmarked) [Compound 181, 3-cyclobutyl-8-(3-fluoropyrrolidin-1-yl)-2,3,4,5-tetrahydro-1H-benzo[4,5]imidazo[1,2-d][1,4]diazepine]"
25,≤ 100,"FC1(F)CCN(c2ccc3c(c2)nc2n3CCN(C3CCC3)CC2)C1 [Compound 182, 3-cyclobutyl-8-(3,3-difluoropyrrolidin-1-yl)-2,3,4,5-tetrahydro-1H-benzo[4,5]imidazo[1,2-d][1,4]diazepine]"
26,≤ 100,"c1c2c(cc3c1nc1n3CCN(C3CCC3)CC1)CCNC2 [Compound 183, 9-cyclobutyl-2,3,4,7,8,9,10,11-octahydro-1H-[1,4]diazepino[7′,1′:2,3]imidazo[4,5-g]isoquinoline]"

# From patent publication US8404670B2 (Sunovion Pharmaceuticals Inc., priority 2009, dated 2013)
